According to patent US8017612B2, “Piperazine compound and use thereof as a HCV polymerase inhibitor” (priority 2006, dated 2011):

Experiments:
[1] = target: T1, HCV polymerase (NS5B) type 1a (Hepatitis C virus genotype 1a, UniProt P26664); assay: Assay of enzyme (HCV polymerase) inhibitory activity, type 1a enzyme; assay type: biochemical, HCV type 1a (cloned from the blood of patients); conditions: HCV polymerase inhibitory activity (IC50), 1a, type 1a enzyme 1.5 μg/ml, 25° C., 60 min
T1 construct: made in house; host or cells: Escherichia coli (by the 'similar method' of the 1b enzyme)
Outline: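 His-tagged NS5B, C-terminal 47 residues deleted, type 1a at 1.5 μg/ml, with 5 μg/ml HCV 3′UTR substrate RNA, 50 μM ATP/GTP/CTP, 2 μM UTP plus [3H]UTP, pH 7.5 Tris, 5 mM MgCl2; 60 min at 25° C. TCA-precipitated RNA counted by scintillation; IC50 from radioactivity with vs. without compound.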

[2] = target: T2, HCV polymerase (NS5B) type 1b (Hepatitis C virus genotype 1b, UniProt P26663); assay: Assay of enzyme (HCV polymerase) inhibitory activity, type 1b enzyme; assay type: biochemical, HCV BK strain (type 1b); conditions: HCV polymerase inhibitory activity (IC50), 1b, type 1b enzyme 0.5 μg/ml, 25° C., 60 min
T2 construct: a region encoding NS5B (J Virol 1991 March, 65(3), 1105-13, 544 amino acids after deletion of 47 amino acids on the C-terminal); 6xHis (C); made in house; host or cells: Escherichia coli
Outline: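 His-tagged, C-terminally truncated NS5B (BK strain, 1b; 0.5 μg/ml) incubated with compound 60 min at 25 °C on 3′UTR-derived substrate RNA (5 μg/ml), 50 μM ATP/GTP/CTP, 2 μM UTP plus [3H]UTP, pH 7.5. Acid-precipitated RNA counted; IC50 from radioactivity with and without compound.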

CCCc1ccc(CNC(=O)[C@H]2CN(c3nc(C)c(CN(C)C)s3)CCN2S(=O)(=O)c2ccc(OC(F)(F)F)cc2)cc1 [Example 505, (R)-4-(5-dimethylaminomethyl-4-methyl-thiazol-2-yl)-1-(4-trifluoromethoxy-benzenesulfonyl)-piperazine-2-carboxylic acid 4-propyl-benzylamide]
IC50 [1]: < 100 nM
IC50 [2]: < 100 nM

CCCc1ccc(CNC(=O)[C@H]2CN(c3nc(C)c(CNC)s3)CCN2S(=O)(=O)c2ccc(OC(F)(F)F)cc2)cc1 [Example 506, (R)-4-(4-methyl-5-methylaminomethyl-thiazol-2-yl)-1-(4-trifluoromethoxy-benzenesulfonyl)-piperazine-2-carboxylic acid 4-propyl-benzylamide]
IC50 [1]: < 100 nM
IC50 [2]: < 100 nM

CCCc1ccc(CNC(=O)[C@H]2CN(c3cnc(C(=O)OC)c(N)n3)CCN2S(=O)(=O)c2ccc(OC(F)(F)F)cc2)cc1 [Example 507, (R)-6′-amino-3-(4-propyl-benzylcarbamoyl)-4-(4-trifluoromethoxy-benzenesulfonyl)-3,4,5,6-tetrahydro-2H-[1,2′]bipyrazinyl-5′-carboxylic acid methyl ester]
IC50 [1]: < 100 nM
IC50 [2]: < 100 nM

CCC(F)(F)c1ccc(CNC(=O)[C@H]2CN(C(=O)Cc3ccncc3)CCN2S(=O)(=O)c2ccc(OC(F)(F)F)cc2)cc1 [Example 508, (R)-4-(2-pyridin-4-yl-acetyl)-1-(4-trifluoromethoxy-benzenesulfonyl)-piperazine-2-carboxylic acid 4-(1,1-difluoro-propyl)-benzylamide]
IC50 [1]: < 100 nM
IC50 [2]: < 100 nM

CCCc1ccc(CNC(=O)[C@H]2CN(c3nc(C)c(C(=O)O)s3)CCN2S(=O)(=O)c2ccc(OC(F)(F)F)c(F)c2)cc1 [Example 509, 2-[(R)-4-(3-fluoro-4-trifluoromethoxy-benzenesulfonyl)-3-(4-propyl-benzylcarbamoyl)-piperazin-1-yl]-4-methyl-thiazole-5-carboxylic acid]
IC50 [1]: < 100 nM
IC50 [2]: < 100 nM

CCCc1ccc(CNC(=O)[C@H]2CN(c3nc(CO)cs3)CCN2S(=O)(=O)c2ccc(OC(F)(F)F)cc2)cc1 [Example 510, (R)-4-(4-hydroxymethyl-thiazol-2-yl)-1-(4-trifluoromethoxy-benzenesulfonyl)-piperazine-2-carboxylic acid 4-propyl-benzylamide]
IC50 [1]: < 100 nM
IC50 [2]: < 100 nM

CCC(F)(F)c1ccc(CNC(=O)[C@H]2CN(C(=O)Nc3ccnc(CO)c3)CCN2S(=O)(=O)c2ccc(OC(F)(F)F)cc2)cc1 [Example 511, (R)-4-(4-trifluoromethoxy-benzenesulfonyl)-piperazine-1,3-dicarboxylic acid 3-[4-(1,1-difluoro-propyl)-benzylamide] 1-[(2-hydroxymethyl-pyridin-4-yl)-amide]]
IC50 [1]: < 100 nM
IC50 [2]: < 100 nM

CCC(F)(F)c1ccc(CNC(=O)[C@H]2CN(C(=O)Nc3ccnc(C(=O)NC4CC4)c3)CCN2S(=O)(=O)c2ccc(OC(F)(F)F)cc2)cc1 [Example 512, (R)-4-(4-trifluoromethoxy-benzenesulfonyl)-piperazine-1,3-dicarboxylic acid 1-[(2-cyclopropylcarbamoyl-pyridin-4-yl)-amide] 3-[4-(1,1-difluoro-propyl)-benzylamide]]
IC50 [1]: < 100 nM
IC50 [2]: < 100 nM

CCC(F)(F)c1ccc(CNC(=O)[C@H]2CN(C(=O)Nc3ccnc(C(=O)N4CCOCC4)c3)CCN2S(=O)(=O)c2ccc(OC(F)(F)F)cc2)cc1 [Example 513, (R)-4-(4-trifluoromethoxy-benzenesulfonyl)-piperazine-1,3-dicarboxylic acid 3-[4-(1,1-difluoro-propyl)-benzylamide] 1-{[2-(morpholine-4-carbonyl)-pyridin-4-yl]-amide}]
IC50 [1]: < 100 nM
IC50 [2]: < 100 nM

CCC(F)(F)c1ccc(CNC(=O)[C@H]2CN(C(=O)Nc3ccnc(C(=O)N4CCCC4)c3)CCN2S(=O)(=O)c2ccc(OC(F)(F)F)cc2)cc1 [Example 514, (R)-4-(4-trifluoromethoxy-benzenesulfonyl)-piperazine-1,3-dicarboxylic acid 3-[4-(1,1-difluoro-propyl)-benzylamide] 1-{[2-(pyrrolidine-1-carbonyl)-pyridin-4-yl]-amide}]
IC50 [1]: < 100 nM
IC50 [2]: < 100 nM

CCCc1ccc(CNC(=O)[C@H]2CN(c3cnc(C(=O)OC)c(NC(C)=O)n3)CCN2S(=O)(=O)c2ccc(OC(F)(F)F)cc2)cc1 [Example 515, (R)-6′-acetylamino-3-(4-propyl-benzylcarbamoyl)-4-(4-trifluoromethoxy-benzenesulfonyl)-3,4,5,6-tetrahydro-2H-[1,2′]bipyrazinyl-5′-carboxylic acid methyl ester]
IC50 [1]: < 100 nM
IC50 [2]: < 100 nM

CCCc1ccc(CNC(=O)[C@H]2CN(c3n[nH]c(=O)s3)CCN2S(=O)(=O)c2ccc(OC(F)(F)F)cc2)cc1 [Example 516, (R)-4-(5-oxo-4,5-dihydro-[1,3,4]thiadiazol-2-yl)-1-(4-trifluoromethoxy-benzenesulfonyl)-piperazine-2-carboxylic acid 4-propyl-benzylamide]
IC50 [1]: < 100 nM
IC50 [2]: < 100 nM

CCC(F)(F)c1ccc(CNC(=O)[C@H]2CN(C(=O)Nc3ccnc(Cl)c3)CCN2S(=O)(=O)c2ccc(OC(F)(F)F)cc2)cc1 [Example 517, (R)-4-(4-trifluoromethoxy-benzenesulfonyl)-piperazine-1,3-dicarboxylic acid 1-[(2-chloro-pyridin-4-yl)-amide] 3-[4-(1,1-difluoro-propyl)-benzylamide]]
IC50 [1]: < 100 nM
IC50 [2]: < 100 nM

CCC(F)(F)c1ccc(CNC(=O)[C@H]2CN(C(=O)Cc3nnn(C)n3)CCN2S(=O)(=O)c2ccc(OC(F)(F)F)cc2)cc1 [Example 518, (R)-4-[2-(2-methyl-2H-tetrazol-5-yl)-acetyl]-1-(4-trifluoromethoxy-benzenesulfonyl)-piperazine-2-carboxylic acid 4-(1,1-difluoro-propyl)-benzylamide]
IC50 [1]: < 100 nM
IC50 [2]: < 100 nM

CCC(F)(F)c1ccc(CNC(=O)[C@H]2CN(C(=O)Cc3nnnn3C)CCN2S(=O)(=O)c2ccc(OC(F)(F)F)cc2)cc1 [Example 519, (R)-4-[2-(1-methyl-1H-tetrazol-5-yl)-acetyl]-1-(4-trifluoromethoxy-benzenesulfonyl)-piperazine-2-carboxylic acid 4-(1,1-difluoro-propyl)-benzylamide]
IC50 [1]: 100 to 1000 nM
IC50 [2]: 100 to 1000 nM

CCC(F)(F)c1ccc(CNC(=O)[C@H]2CN(C(=O)c3cscn3)CCN2S(=O)(=O)c2ccc(OC(F)(F)F)cc2)cc1 [Example 520, (R)-4-(thiazole-4-carbonyl)-1-(4-trifluoromethoxy-benzenesulfonyl)-piperazine-2-carboxylic acid 4-(1,1-difluoro-propyl)-benzylamide]
IC50 [1]: > 1000 nM
IC50 [2]: 100 to 1000 nM

CCC(F)(F)c1ccc(CNC(=O)[C@H]2CN(C(=O)c3cc(C)on3)CCN2S(=O)(=O)c2ccc(OC(F)(F)F)cc2)cc1 [Example 521, (R)-4-(5-methyl-isoxazole-3-carbonyl)-1-(4-trifluoromethoxy-benzenesulfonyl)-piperazine-2-carboxylic acid 4-(1,1-difluoro-propyl)-benzylamide]
IC50 [1]: > 1000 nM
IC50 [2]: 100 to 1000 nM

CCCc1ccc(CNC(=O)[C@H]2CN(c3cnc(C(=O)O)cn3)CCN2S(=O)(=O)c2ccc(CC)s2)cc1 [Example 522, (R)-4-(5-ethyl-thiophene-2-sulfonyl)-3-(4-propyl-benzylcarbamoyl)-3,4,5,6-tetrahydro-2H-[1,2′]bipyrazinyl-5′-carboxylic acid]
IC50 [1]: < 100 nM
IC50 [2]: < 100 nM

Cc1cc(N2CCN(S(=O)(=O)c3ccc(OC(F)(F)F)cc3)[C@@H](C(=O)NCc3ccc(C(C)C)cc3)C2)n[nH]1 [Example 523, (R)-4-(5-methyl-1H-pyrazol-3-yl)-1-(4-trifluoromethoxy-benzenesulfonyl)-piperazine-2-carboxylic acid 4-isopropyl-benzylamide]
IC50 [1]: 100 to 1000 nM
IC50 [2]: 100 to 1000 nM

CCc1ccc(S(=O)(=O)N2CCN(c3cnc(C(=O)O)cn3)C[C@@H]2C(=O)NCc2ccc(C(C)(C)C)cc2)cc1 [Example 524, (R)-3-(4-tert-butyl-benzylcarbamoyl)-4-(4-ethyl-benzenesulfonyl)-3,4,5,6-tetrahydro-2H-[1,2′]bipyrazinyl-5′-carboxylic acid]
IC50 [1]: < 100 nM
IC50 [2]: < 100 nM

CCC(F)(F)c1ccc(CNC(=O)[C@H]2CN(C(=O)Nc3cscn3)CCN2S(=O)(=O)c2ccc(OC(F)(F)F)cc2)cc1 [Example 525, (R)-4-(4-trifluoromethoxy-benzenesulfonyl)-piperazine-1,3-dicarboxylic acid 3-[4-(1,1-difluoro-propyl)-benzylamide] 1-thiazol-4-ylamide]
IC50 [1]: < 100 nM
IC50 [2]: < 100 nM

CCC(F)(F)c1ccc(CNC(=O)[C@H]2CN(C(=O)Nc3cc(C)on3)CCN2S(=O)(=O)c2ccc(OC(F)(F)F)cc2)cc1 [Example 526, (R)-4-(4-trifluoromethoxy-benzenesulfonyl)-piperazine-1,3-dicarboxylic acid 3-[4-(1,1-difluoro-propyl)-benzylamide] 1-[(5-methyl-isoxazol-3-yl)-amide]]
IC50 [1]: 100 to 1000 nM
IC50 [2]: 100 to 1000 nM
